Target: T1, Human α-thrombin (Homo sapiens, UniProt P00734)
T1 construct: Human α-thrombin; purchased Sigma Chemical Co. or Hematologic Technologies
Experiment: Test A: Determination of Thrombin Inhibition with a Chromogenic, Robotic Assay
Type: biochemical
Conditions: chromogenic substrate S-2366 0.30 mmol/L, α-thrombin 0.020 NIHU/mL, 40 minutes incubation at 37° C.
Procedure: Determination of Thrombin Inhibition with a Chromogenic, Robotic Assay
The thrombin inhibitor potency is measured with a chromogenic substrate method, in a Plato 3300 robotic microplate processor (Rosys AG, CH-8634 Hombrechtikon, Switzerland), using 96-well, half volume microtitre plates (Costar, Cambridge, Mass., USA; Cat No 3690). Stock solutions of test substance in DMSO (72 μL), 0.1-1 mmol/L, are diluted serially 1:3 (24+48 μL) with DMSO to obtain ten different concentrations, which are analyzed as samples in the assay. 2 μL of test sample is diluted with 124 μL assay buffer, 12 μL of chromogenic substrate solution (S-2366, Chromogenix, Mölndal, Sweden) in assay buffer and finally 12 μL of α-thrombin solution (Human α-thrombin, Sigma Chemical Co. or Hematologic Technologies) in assay buffer, are added, and the samples mixed. The final assay concentrations are: test substance […], S-2366 0.30 mmol/L, α-thrombin 0.020 NIHU/mL The linear absorbance increment during 40 minutes incubation at 37° C. is used for calculation of percentage inhibition for the test samples, as compared to blanks without inhibitor. The IC50 value, corresponding to the inhibitor concentration which causes 50% inhibition of the thrombin activity, is calculated from a log concentration vs. % inhibition curve.

| Compound | IC50 |
| --- | --- |
| CCCC(=O)O[C@@H](C(=O)N1N=CC[C@H]1C(=O)NCc1cc(Cl)ccc1-n1cnnn1)c1ccc(F)cc1 [Example 25, (1R)-2-[(5S)-5-{[5-Chloro-2-(1H-tetrazol-1-yl)benzyl]carbamoyl}-4,5-dihydro-1H-pyrazol-1-yl]-1-(4-fluorophenyl)-2-oxoethyl butanoate] | 160 nM |
| O=C(NCc1cc(Cl)ccc1-n1cnnn1)[C@@H]1CC=NN1C(=O)[C@H](O)C1CCCC1 [Example 5, (5S)—N-[5-Chloro-2-(1H-tetrazol-1-yl)benzyl]-1-[(2R)-2-cyclopentyl-2-hydroxyacetyl]-4,5-dihydro-1H-pyrazole-5-carboxamide] | 24 nM |
| O=C(NCc1cc(Cl)ccc1-n1cnnn1)[C@@H]1CCON1C(=O)[C@H](O)C1CCCCC1 [Example 42, (3S)—N-[5-Chloro-2-(1H-tetrazol-1-yl)benzyl]-2-[(2R)-2-cyclohexyl-2-hydroxyacetyl]isoxazolidine-3-carboxamide] | 21 nM |
| O=C(NCc1cc(Cl)ccc1-n1cnnn1)[C@@H]1CCNN1C(=O)C(O)c1ccccc1F (stereo partly drawn) [Example 50, (3S)—N-[5-Chloro-2-(1H-tetrazol-1-yl)benzyl]-2-[(2-fluorophenyl)(hydroxy)acetyl]pyrazolidine-3-carboxamide] | 79 nM |
| O=C(NCc1cc(Cl)ccc1-n1cnnn1)[C@@H]1CC=NN1C(=O)C(O)c1cccc(F)c1F (stereo partly drawn) [Example 2, (5S)—N-[5-Chloro-2-(1H-tetrazol-1-yl)benzyl]-1-[(2,3-difluorophenyl)(hydroxy)acetyl]-4,5-dihydro-1H-pyrazole-5-carboxamide] | 34 nM |
| O=C(NCc1cc(Cl)ccc1-n1cnnn1)[C@@H]1CCON1C(=O)C(O)c1ccccc1F (stereo partly drawn) [Example 36, (3S)—N-[5-Chloro-2-(1H-tetrazol-1-yl)benzyl]-2-[(2-fluorophenyl)(hydroxy)acetyl]isoxazolidine-3-carboxamide] | 94 nM |
